Experimental data taken from paper PMC7076388 (Pharmaceutics, 2020).
“Also recorded” adds a separate entry of the source.

How the values were obtained:
[1] = target: T1, 26S proteasome isolated from AGS cells (Homo sapiens, UniProt P28074); assay: 26S proteasome inhibition; format: biochemical
T1 construct: purified 26S proteasome isolated from AGS cells; endogenous in cells; host or cells: AGS cells
T1 sequence (P28074 60-263): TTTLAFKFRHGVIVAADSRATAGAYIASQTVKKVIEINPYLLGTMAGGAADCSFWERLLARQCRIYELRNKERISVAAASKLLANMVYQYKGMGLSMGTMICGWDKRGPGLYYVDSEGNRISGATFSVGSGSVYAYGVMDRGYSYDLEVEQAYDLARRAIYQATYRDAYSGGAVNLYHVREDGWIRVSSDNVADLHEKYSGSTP
Method: This assay was carried out in the same way as described for 20S proteasome (vide supra), except using purified 26S proteasome isolated from AGS cells. To extract 26S proteasome from cells, they were centrifuged at 1300 rpm for 3 min at 37 °C and the supernatant was rejected. The pellet was then resuspended in 5 mL of HBSS. After this step, the cells were centrifuged again under the conditions referred to above and the supernatant was rejected. Then, 1 mL of cell lysis buffer was added, before being placed in ice (4 °C) for 30 min. Subsequently, the mixture was centrifuged at 14,000 g during 30 min at 4 °C. The pellet was rejected, and the supernatant was kept in an Eppendorf tube. The quantity of protein isolated was determined by Bradford Assay.
A stock solution of bovine serum albumin (BSA) (1.0 mg/mL) was prepared in H2O. From the stock solution, six concentrations were prepared: 5%, 4%, 3%, 2%, 1% and 0% stock solution in H2O. An aliquot of each sample (40 µL) was added to a solution of the Bradford reagent (200 µL). After 5 min, the absorbance was measured at 595 nm and the calibration curve was plotted (correlation > 0.99). […] After 5 min, the absorbance was measured at 595 nm and the result was compared with the correlation curve in order to calculate the concentration of protein.

AGS cells = assay: MTT cell viability, AGS cells; format: cell-based; conditions: 100 µM, 24 h
Method: Adenocarcinoma gastric cells (AGS; Sigma-Aldrich, St. Louis, MO, USA), murine-macrophage cell line (RAW 264.7; American Type Culture Collection, LGC Standards S.L.U., Barcelona, Spain), and human foetal lung fibroblasts (MRC-5; ECACC, Porton Down Salisbury, UK) were cultured as a monolayer at 37 °C in a humidified incubator with 5% carbon dioxide. AGS and RAW 264.7 cells were grown in DMEM, supplemented with 1% streptomycin/penicillin and 10% FBS (Gibco®). MRC-5 cells were grown in MEM, supplemented with 1% streptomycin/penicillin and 10% FBS.
Cell viability was evaluated by the MTT reduction assay. Cells were cultured in 96-well plates (15,000 cells/well for AGS, 25,000 cells/well for RAW and 20,000 cells/well for MRC-5) and allowed to attach for 24 h. After incubation with compounds for 24 h, MTT (0.5 mg/mL final concentration) was added to each well and the plate was incubated for 75 min at 37 °C. Formazan crystals were dissolved by the addition of a DMSO: isopropanol mixture (3:1) and then quantified spectrophotometrically at 570 nm using a microplate reader (Multiskan Thermo Fisher Scientific Oy, Vantaa, Finland).

[2] = target: T2, LOX from glycine max (soybean) (Glycine max, UniProt P08170); design: method as in PMID 30987203; conditions: 100 µM; cited from earlier work
T2 construct: purchased Sigma-Aldrich
T2 sequence (P08170 1-839): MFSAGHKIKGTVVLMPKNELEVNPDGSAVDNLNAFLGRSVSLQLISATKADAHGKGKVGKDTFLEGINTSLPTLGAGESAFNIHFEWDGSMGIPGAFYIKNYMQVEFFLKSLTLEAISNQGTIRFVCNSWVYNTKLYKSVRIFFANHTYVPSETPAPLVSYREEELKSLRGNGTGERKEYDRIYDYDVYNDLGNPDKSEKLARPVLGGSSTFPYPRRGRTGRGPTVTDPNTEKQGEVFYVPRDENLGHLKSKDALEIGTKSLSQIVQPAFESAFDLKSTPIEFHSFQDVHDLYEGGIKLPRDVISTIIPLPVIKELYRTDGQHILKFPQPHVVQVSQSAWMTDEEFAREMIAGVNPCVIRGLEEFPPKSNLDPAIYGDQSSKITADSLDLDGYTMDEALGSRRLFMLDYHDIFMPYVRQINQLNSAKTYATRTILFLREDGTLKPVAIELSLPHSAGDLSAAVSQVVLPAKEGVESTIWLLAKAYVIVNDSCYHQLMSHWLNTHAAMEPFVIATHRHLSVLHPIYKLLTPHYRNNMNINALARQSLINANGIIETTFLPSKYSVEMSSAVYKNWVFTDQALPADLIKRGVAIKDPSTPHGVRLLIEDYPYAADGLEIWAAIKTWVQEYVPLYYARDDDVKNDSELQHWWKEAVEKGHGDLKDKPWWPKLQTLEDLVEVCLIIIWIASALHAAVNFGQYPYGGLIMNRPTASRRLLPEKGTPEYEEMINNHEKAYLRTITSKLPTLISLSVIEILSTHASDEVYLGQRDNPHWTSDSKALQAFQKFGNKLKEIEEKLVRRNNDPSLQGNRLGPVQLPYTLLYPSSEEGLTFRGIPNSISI

26S proteasome activity versus control ([1]; 100 µM): 8.1% | IC50 ([1]; dose-response assay): 18.6 µM
SMILES: COc1ccc2cc(C(C)C(=O)NC(Cc3ccc(O)cc3)C(=O)NC(=Cc3ccccc3)C(=O)O)ccc2c1 [Compound 1, Npx-L-Tyr-Z-ΔPhe-OH]
toxicity towards AGS cells (AGS cells): not toxic | LOX inhibition at single concentration [2]: significantly inhibit the LOX enzyme to a similar level to naproxen; also recorded: high levels of lipoxygenase (LOX) inhibition
